For data set [1] the following is noted: 298.2 K; 101.33 kPa; Liquid.
A short description of data set [2]: refractive index (Na D-line) (dimensionless). Conditions: 298.2 K; 101.33 kPa; Liquid; Standard Abbe refractometry.

This note sets out measurements from the NIST ThermoML archive (doi:10.1016/j.fluid.2006.07.016).

± gives the expanded uncertainty stated by the source.

Consider `CCCO` [propan-1-ol], for which the mass density in data set [1] worked out at 799.7 ± 0.5 kg/m3. Moreover, in data set [2], the refractive index worked out at 1.3839 ± 0.0007.
Taken in the same sequence, the figures for `CCCOC(C)=O` [propyl ethanoate] were 882.5 ± 0.4 kg/m3 and 1.3828 ± 0.0007.
